Experimental data: PubChem BioAssay AID264 (DTP/NCI, 2004)
Where “and” joins values, the source holds several entries; their conditions need not be identical. Equal entries are not always repeated. Records with an inconclusive call do not appear.

System: nude mice, LX-1 lung xenograft intrarenal, tumor weight T/C
Assay: NCI In Vivo Anticancer Drug Screen. Data for tumor model Human Lung LX-1 Xenograft (intrarenal inoculation) in NU/NU Swiss (nude) mice
Details: endpoint: mean tumor weight change, higher = larger tumour
Procedure, shortened: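 Readout: T/C, i.e. treated-group tumor measurement over vehicle-control measurement. Mice bearing transplantable tumors were dosed with compound or vehicle.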

[1] = dose: 40.0 mg/kg/injection, schedule: Q01DX010 (sc), vehicle: saline
[2] = dose: 150.0 mg/kg/injection, schedule: Q04DX003 (sc), vehicle: suspension in saline
[3] = dose: 300.0 mg/kg/injection, schedule: Q04DX003 (sc), vehicle: suspension in saline

COc1cc(Cc2nccc3cc(OC)c(OC)cc23)c(C(C)=O)c(OC)c1
T/C [1]: 78 % of control
T/C (dose: 80.0 mg/kg/injection, schedule: Q01DX010 (sc), vehicle: saline): 57 % of control
T/C (dose: 160.0 mg/kg/injection, schedule: Q01DX010 (sc), vehicle: saline): 67 % of control

C=CS(C=C)=NS(=O)(=O)c1ccc(C)cc1
T/C (dose: 18.75 mg/kg/injection, schedule: Q04DX003 (sc), vehicle: Klucel (hydroxypropylcellulose) (HPC)): 108 % of control
T/C (dose: 37.5 mg/kg/injection, schedule: Q04DX003 (sc), vehicle: Klucel (hydroxypropylcellulose) (HPC)): 163 % of control
T/C (dose: 75.0 mg/kg/injection, schedule: Q04DX003 (sc), vehicle: Klucel (hydroxypropylcellulose) (HPC)): 71 % of control

CN(C(=S)S(=O)(=O)C12CC3CC(CC(C3)C1)C2)c1ccccc1
T/C (dose: 50.0 mg/kg/injection, schedule: Q04DX003 (sc), vehicle: Klucel (hydroxypropylcellulose) (HPC)): 164 % of control
T/C (dose: 100.0 mg/kg/injection, schedule: Q04DX003 (sc), vehicle: Klucel (hydroxypropylcellulose) (HPC)): 161 % of control
T/C (dose: 400.0 mg/kg/injection, schedule: Q04DX003 (sc), vehicle: Klucel (hydroxypropylcellulose) (HPC)): 176 % of control

COC1C(/C=C/C(C)=O)OC2OC(C)(C)OC21 (stereo not drawn)
T/C (dose: 75.0 mg/kg/injection, schedule: Q04DX003 (sc), vehicle: suspension in saline): 52 % of control
T/C [2]: 158 % of control
T/C [3]: 123 % of control

CCOC(=O)Nc1cc2c(c(N)n1)N=C(c1ccc(Cl)cc1Cl)CN2
T/C (dose: 37.5 mg/kg/injection, schedule: Q04DX003 (sc), vehicle: saline with Tween-80): 82 % of control
T/C (dose: 75.0 mg/kg/injection, schedule: Q04DX003 (sc), vehicle: saline with Tween-80): 76 % of control
T/C (dose: 150.0 mg/kg/injection, schedule: Q04DX003 (sc), vehicle: saline with Tween-80): 64 % of control
T/C (dose: 300.0 mg/kg/injection, schedule: Q04DX003 (sc), vehicle: saline with Tween-80): 66 % of control

OCCN1CCN(CC/C=C2/c3ccccc3Sc3ccc(C(F)(F)F)cc32)CC1
T/C (dose: 10.0 mg/kg/injection, schedule: Q01DX010 (sc), vehicle: saline): 54 % of control
T/C (dose: 20.0 mg/kg/injection, schedule: Q01DX010 (sc), vehicle: saline): 45 % of control
T/C [1]: 29 % of control

COc1cc([C@@H]2c3cc4c(cc3[C@@H](OC3OC5CO[C@@H](c6cccs6)OC5C(O)C3O)[C@H]3COC(=O)[C@H]23)OCO4)cc(OC)c1O (stereo partly drawn)
T/C (dose: 1.0 mg/kg/injection, schedule: Q01DX010 (sc), vehicle: saline): 54 % of control
T/C (dose: 2.0 mg/kg/injection, schedule: Q01DX010 (sc), vehicle: saline): 78 % of control
T/C (dose: 4.0 mg/kg/injection, schedule: Q01DX010 (sc), vehicle: saline): 62 % of control and 78 % of control
T/C (dose: 8.0 mg/kg/injection, schedule: Q01DX010 (sc), vehicle: saline): 62 % of control and 78 % of control
T/C (dose: 16.0 mg/kg/injection, schedule: Q01DX010 (sc), vehicle: saline): 89 % of control
T/C (dose: 32.0 mg/kg/injection, schedule: Q01DX010 (sc), vehicle: saline): 39 % of control
T/C (dose: 33.0 mg/kg/injection, schedule: Q01DX010 (sc), vehicle: saline): 109 % of control
T/C (dose: 132.0 mg/kg/injection, schedule: Q01DX010 (sc), vehicle: saline): 56 % of control
T/C (dose: 264.0 mg/kg/injection, schedule: Q01DX010 (sc), vehicle: saline): 88 % of control

O=c1[nH]cnc2[nH]ncc12
T/C [2]: 88 % of control
T/C [3]: 100 % of control
T/C (dose: 600.0 mg/kg/injection, schedule: Q04DX003 (sc), vehicle: suspension in saline): 61 % of control

C=C(C)[C@H]1Cc2c(ccc3c2O[C@@H]2COc4cc(OC)c(OC)cc4[C@@H]2C3=O)O1
T/C (dose: 2.0 mg/kg/injection, schedule: Q01DX010 (sc), vehicle: saline with Tween-80): 286 % of control
T/C (dose: 4.0 mg/kg/injection, schedule: Q01DX010 (sc), vehicle: saline with Tween-80): 62 % of control

O=C1C=CN(C2OC(CO)C(O)C2O)C(=O)C1 (stereo not drawn)
T/C (dose: 50.0 mg/kg/injection, schedule: Q01DX010 (sc), vehicle: saline): 65 % of control
T/C (dose: 100.0 mg/kg/injection, schedule: Q01DX010 (sc), vehicle: saline): 21 % of control

CC1(C)CC1(Br)Br
T/C (dose: 100.0 mg/kg/injection, schedule: Q01DX010 (sc), vehicle: saline with Tween-80): 160 % of control
T/C (dose: 200.0 mg/kg/injection, schedule: Q01DX010 (sc), vehicle: saline with Tween-80): 76 % of control and 77 % of control
T/C (dose: 400.0 mg/kg/injection, schedule: Q01DX010 (sc), vehicle: saline with Tween-80): 58 % of control
